Measured values reported in patent publication US20150352081A1, “USE OF PIDOTIMOD TO TREAT ATOPIC DERMATITIS” (POLICHEM S.A., priority 2012, published 2015).
Square brackets hold non-standard residues; d marks the D form. Peptide text beside a SMILES is read from it. pGlu = O=C1CC[C@@H](C(=O)O)N1; Thz = O=C(O)[C@@H]1CSCN1

Columns and labels:
[1] = test system: patients affected by atopic dermatitis; test: Erythema score in patients with atopic dermatitis treated topically with pidotimod cream; type: in vivo, human; design: Effect on erythema score: dose or concentration left out as unconfirmed
Method: (§1) An evaluation of the activity of pidotimod was tested on patients affected by atopic dermatitis, in order to assess the efficacy in terms of improvement of the pathology by means of erythema evaluation. The safety of the treatment was also evaluated. The study was performed in 5 patients (4 females and 1 male, aged between 22-35 years, mean=29) with a clinical diagnosis of atopic dermatitis having as inclusion criteria the affection of the anterior flexural crease of the elbow or of the knee.
(§2) The study product was taken with the composition of the Example 1 at a dosage of two applications daily on the affected skin.
(§3) During the trial, the following visits were performed: • baseline—T0 (before the product use) • intermediate visit—T6 (after 6 weeks of treatment) • final visit—T12 (after 12 weeks of treatment)
The efficacy of the product was expressed by mean of a 5 points erythema score, assessing the score at the baseline, at the intermediate visit and the final one.

[2] = test system: patients affected by atopic dermatitis; test: Safety/tolerability of the treatment in patients with atopic dermatitis; type: in vivo, human; conditions: 5 patients, two applications daily, 12 weeks
Method: as §1, §2, §3

## O=C1CC[C@@H](C(=O)N2CSC[C@H]2C(=O)O)N1 [pidotimod, (4R)-3-(5-oxo-L-prolyl)-1,3-thiazolidine-4-carboxylic acid] ([pGlu]-[Thz]-OH)
[1]; T12 (12 weeks) vs. T0 (baseline)
  Student t test p of the erythema score change: < 0.05
[1]; pidotimod cream, two applications daily, 12 weeks, compared to the baseline
  Effect on erythema score: able to improve the erythema score
[2]
  Side effects: no side effects were reported
  Tolerability of the treatment: very well tolerated
